A short description of assay [1]: Cytotoxicity against human Hs683 cells after 3 days by MTT assay. Format: functional, cell-based. Conditions: Hs 683, 72 h. (In general: Tetrazolium dyes change colour on reduction, which living cells bring about.)
Assay [2] relates to PC-3. Description: Cytotoxicity against human PC3 cells after 3 days by MTT assay. The assay is classed as functional, cell-based. To be noted: PC-3, 72 h.
In assay [3] the test system is B16-F10. The assay can be described thus: Cytotoxicity against mouse B16F10 cells after 3 days by MTT assay. Format: functional, cell-based. To be noted: B16-F10, 72 h.
In assay [4] the test system is MCF7. Description: Cytotoxicity against human MCF7 cells after 3 days by MTT assay. To be noted: MCF7, 72 h. Format: functional, cell-based.
In assay [5] the test system is A549. Description: Cytotoxicity against human A549 cells after 3 days by MTT assay. The assay is classed as functional, cell-based. To be noted: A549, 72 h.
Assay [6] in a line: Cytotoxicity against mouse CT26.WT cells after 3 days by MTT assay. Format: functional, cell-based. To be noted: 72 h.
Assay [7] is described as follows: Cytotoxicity against human U373 cells after 3 days by MTT assay. Format: functional, cell-based, U-373MG ATCC. Conditions: U373 MG, 72 h.
For assay [8], the system named is SK-MEL-28. The assay can be described thus: Cytotoxicity against human SK-MEL-28 cells after 3 days by MTT assay. The assay is classed as functional, cell-based. To be noted: SK-MEL-28, 72 h.
The subject of assay [9] is B16-F10. The assay can be described thus: Cytotoxicity against mouse B16F10 cells at <= 10 uM after 3 days by MTT assay. Format: functional, cell-based.
Assay [10] concerns A549. The assay can be described thus: Cytotoxicity against human A549 cells at <= 10 uM after 3 days by MTT assay. The assay is classed as functional, cell-based.
Assay [11] concerns MCF7. The assay can be described thus: Cytotoxicity against human MCF7 cells at <= 10 uM after 3 days by MTT assay. Format: functional, cell-based.
The test system of assay [12] is PC-3. The assay can be described thus: Cytotoxicity against human PC3 cells at <= 10 uM after 3 days by MTT assay. Format: functional, cell-based.
Assay [13] deals with CT26.WT. The assay can be described thus: Cytotoxicity against mouse CT26.WT cells at <= 10 uM after 3 days by MTT assay. The assay is classed as functional, cell-based.
In assay [14] the test system is U-373MG ATCC. Description: Cytotoxicity against human U373 cells at <= 10 uM after 3 days by MTT assay. Format: functional, cell-based.
In assay [15] the test system is Hs 683. Description: Cytotoxicity against human Hs683 cells at <= 10 uM after 3 days by MTT assay. Format: functional, cell-based.
The test system of assay [16] is SK-MEL-28. Description: Cytotoxicity against human SK-MEL-28 cells at <= 10 uM after 3 days by MTT assay. The assay is classed as functional, cell-based.

The source of these data is ChEMBL document CHEMBL2385074, “Structure-activity relationship analysis of bufadienolide-induced in vitro growth inhibitory effects on mouse and human cancer cells” (J Nat Prod, 2013).

For orientation: IC50 means the concentration that inhibits the measured activity by half. The low end stands for inhibition by little substance, the high end for a need for much substance.

Calls of active or inactive are those of the source. The calls are words filed in the database; no cut-off is given here. Where only a bound is given, the exact number is not on record here.

Take `C[C@]12CC[C@H](O)C[C@H]1CC[C@@H]1[C@@H]2C(=O)[C@@H](O)[C@]2(C)[C@@H](c3ccc(=O)oc3)CC[C@]12O` [BUFARENOGIN]: the IC50 in [1] is 2680 nM; in [2], 7420 nM; in assay [3] it was more than 10000 nM; in [4], 9300 nM; in assay [5], 3840 nM; in assay [6], more than 10000 nM. For the same compound, the half-inhibitory concentration (IC50) in assay [7] and in [8] was more than 10000 nM in each case.

Regarding `CC(=O)OC[C@H]1CC[C@H]2[C@@H]3CC[C@@H]4C[C@@H](OC(C)=O)CC[C@]4(C)[C@H]3C(=O)[C@@H](OC(C)=O)[C@]12C`, the outcome in assay [9], in assay [10], in assay [11], in assay [12], in [13] and in assay [14] was inactive. Besides, the outcome in assay [15] and in assay [16] was inactive.

`C[C@@H]1O[C@@H](O[C@H]2C[C@@H](O)[C@]3(CO)[C@H]4[C@H](O)C[C@]5(C)[C@@H](C6=CC(=O)OC6)CC[C@]5(O)[C@@H]4CC[C@]3(O)C2)[C@H](O)[C@H](O)[C@H]1O` [OUABAIN]: the IC50 is 28 nM in assay [1]; 43 nM in [2]; more than 10000 nM in assay [3]; 133 nM in assay [4]; 27 nM in assay [5]; more than 10000 nM in assay [6]. The IC50 in assay [7] came to 77 nM; in assay [8] it was 211 nM.

For the compound `COC(=O)[C@H]1CC[C@]2(O)[C@@H]3CC[C@@H]4C[C@@H](OC(C)=O)CC[C@]4(C)[C@H]3[C@H](OC(C)=O)[C@@H](OC(C)=O)[C@]12C`, the outcome in assay [9], in [10], in [11], in [12], in assay [13] and in assay [14] was inactive. Besides, the result in [15] and in [16] was inactive.

Consider `COC(=O)[C@H]1CC[C@]2(O)[C@@H]3CC[C@@H]4C[C@@H](OC(C)=O)CC[C@]4(C)[C@H]3[C@H](OC(C)=O)C[C@]12C`, for which the outcome in assay [9], in assay [10], in assay [11], in [12], in [13] and in assay [14] was inactive. For the same compound, the outcome in [15] and in assay [16] was inactive.

With `C[C@]12CC[C@H](OC(c3ccccc3)c3ccccc3)C[C@@]1(O)CC[C@@H]1[C@@H]2CC[C@]2(C)[C@@H](C(=O)OC(c3ccccc3)c3ccccc3)CC[C@]12O`, the outcome in assay [9], in assay [10], in [11], in assay [12], in assay [13] and in assay [14] was inactive. In addition, the result in [15] and in [16] was inactive.

With `CC(=O)N[C@@H]1CC[C@@]2(C)[C@H](CC[C@@H]3[C@@H]2CC[C@]2(C)[C@@H](c4ccc(=O)oc4)[C@@H](OC(C)=O)[C@H]4O[C@]342)C1`, the IC50 in [1] is 312 nM; in [2] it was 426 nM; in assay [3], more than 10000 nM; in assay [4] it was 726 nM; in assay [5], 302 nM; in assay [6], more than 10000 nM. Also, the IC50 in [7] is 384 nM; in assay [8], 3510 nM.

Regarding `CC(=O)O[C@H]1CC[C@@]2(C)[C@H](CC[C@@H]3[C@@H]2[C@H](OC(C)=O)C(=O)[C@]2(C)[C@@H]4CC[C@]32OC4=O)C1`, the outcome in assay [9], in [10], in [11], in assay [12], in assay [13] and in [14] was inactive. In addition, the outcome in assay [15] and in [16] was inactive.

Turning to `CC(=O)O[C@H]1C[C@]2(O)[C@@H]3CC[C@@H]4C[C@@H](O)CC[C@]4(C)[C@H]3CC[C@]2(C)[C@H]1c1ccc(=O)oc1` [BUFOTALIN], the IC50 is 9 nM in assay [1]; 34 nM in assay [2]; more than 10000 nM in assay [3]; 37 nM in assay [4]; 14 nM in assay [5]; more than 10000 nM in assay [6]. The IC50 stood at 74 nM in assay [7] and 65 nM in assay [8].

Take `C[C@]12CC[C@H]3[C@@H](CC[C@H]4C[C@@H](O)CC[C@@]43C=O)[C@@]1(O)CC[C@@H]2c1ccc(=O)oc1`: the IC50 was 40 nM in assay [1]; 2430 nM in [2]; more than 10000 nM in [3]; 278 nM in assay [4]; 51 nM in assay [5]; more than 10000 nM in assay [6]. In addition, the IC50 in assay [7] came out at 62 nM; in assay [8] it was 336 nM.

As to `CC(=O)O[C@H]1CC[C@@]2(C=O)[C@H](CC[C@@H]3[C@@H]2CC[C@]2(C)[C@@H](c4ccc(=O)oc4)C[C@H]4O[C@]342)C1`, the IC50 in assay [1] is 3660 nM; in assay [2], 5340 nM; in assay [3], more than 10000 nM; in assay [4], more than 10000 nM; in assay [5] it was 7140 nM; in assay [6] it was more than 10000 nM. Besides, the results for the IC50 in [7] and in assay [8] were 7050 nM and more than 10000 nM, respectively.

As to `C[C@]12CCC(=O)C=C1CC[C@@H]1[C@@H]2CC[C@]2(C)[C@@H](c3ccc(=O)oc3)CC[C@]12O` [SCILLARENONE], the IC50 in assay [1] was 73 nM; in assay [2], 284 nM; in [3], more than 10000 nM; in [4] it was 341 nM; in assay [5], 333 nM; in assay [6], more than 10000 nM. For the same compound, the IC50 was 399 nM in assay [7] and 1610 nM in assay [8].

Take `C[C@H]1O[C@@H](O[C@H]2[C@@H](O)C[C@H](O[C@H]3[C@@H](O)C[C@H](O[C@H]4CC[C@@]5(C)[C@H](CC[C@@H]6[C@@H]5C[C@@H](O)[C@]5(C)[C@@H](C7=CC(=O)OC7)CC[C@]65O)C4)O[C@@H]3C)O[C@@H]2C)C[C@H](O)[C@@H]1O` [DIGOXIN]: the IC50 in assay [1] is 40 nM; in assay [2], 75 nM; in [3], more than 10000 nM; in assay [4], 426 nM; in assay [5], 50 nM; in assay [6] it was more than 10000 nM. Also, the IC50 in assay [7] stood at 146 nM; in assay [8], 266 nM.

For `C[C@@H]1O[C@@H](O[C@H]2CC[C@@]3(C)[C@H](CC[C@@H]4[C@@H]3[C@H](O)C[C@]3(C)[C@@H](c5ccc(=O)oc5)CC[C@]43O)C2)[C@H](O)[C@H](O)[C@H]1O`, the IC50 is 2 nM in [1]; less than 1 nM in assay [2]; 659 nM in assay [3]; 8 nM in assay [4]; less than 1 nM in assay [5]; 877 nM in assay [6]. Also, the IC50 came to 3 nM in [7] and 5 nM in [8].

In the case of `C[C@@H]1O[C@@H](O[C@H]2CC[C@]3(C=O)[C@H]4CC[C@]5(C)[C@@H](c6ccc(=O)oc6)CC[C@]5(O)[C@@H]4CC[C@]3(O)C2)[C@H](O)[C@H](O)[C@H]1O[C@@H]1O[C@H](CO)[C@@H](O)[C@H](O)[C@H]1O` [HELLEBRIN], the IC50 is 7 nM in assay [1]; 11 nM in [2]; more than 10000 nM in [3]; 44 nM in assay [4]; 6 nM in assay [5]; more than 10000 nM in assay [6]. For the same compound, the IC50 was determined as 36 nM in assay [7] and 68 nM in assay [8].

For `C[C@]12CC[C@H](O)C[C@@H]1CC[C@@H]1[C@@H]2CC[C@]2(C)[C@@H](c3ccc(=O)oc3)CC[C@]12O`, the 50% inhibitory concentration (IC50) in [1] was 21 nM; in assay [2], 67 nM; in assay [3], more than 10000 nM; in assay [4] it was 428 nM; in assay [6] it was more than 10000 nM; in assay [7], 362 nM. In assay [8], the IC50 was 463 nM.

In the case of `C[C@]12CC[C@H](O)C[C@H]1CC[C@@H]1C2=C(O)C(=O)[C@]2(C)[C@@H](c3ccc(=O)oc3)CC[C@]12O` [ARGENTINOGENIN], the IC50 in assay [1] is 9 nM; in [2], 43 nM; in [3] it was more than 10000 nM; in assay [4] it was 36 nM; in [5], 53 nM; in [6] it was more than 10000 nM. In addition, the IC50 in assay [7] turned out to be 86 nM; in assay [8], 70 nM.

On to `CC(=O)O[C@H]1CC[C@@]2(C)[C@H](CC[C@@H]3[C@@H]2[C@H](OC(C)=O)C(=O)[C@]2(C)[C@@H](c4ccc(=O)oc4)CC[C@]32O)C1`, for which the IC50 in assay [1] was 2620 nM; in assay [2], more than 10000 nM; in [3], more than 10000 nM; in assay [4], 7260 nM; in assay [5], 5910 nM; in assay [6], more than 10000 nM. Also, the values for the IC50 in assay [7] and in assay [8] were 8810 nM and 7980 nM, respectively.
